The target in assay [1] is CDK4/CyclinD1 (Homo sapiens, UniProt P11802). In words: Kinase panel profiling (Reaction Biology Corp). It is filed as biochemical. Particulars: CDK4/CyclinD1, kinase inhibition profile. How it is done: (§1) Initial testing of ON108110 against a panel of 285 functional kinases was performed by Reaction Biology Corp (Malvern, PA). Recombinant CDK4/CYCLIN D1 or CK2α1 were mixed with their respective synthetic peptide substrates (10ng) and incubated with DMSO or increasing concentrations of ON108110 in 20μl kinase buffer [50mM Tris-HCl (pH 7.5), 10mM MgCl2, 1mM EGTA, 2mM DTT and 0.01% NP-40] for 30 min. at room temperature. Kinase reactions were carried out for 20 min at 30°C in the presence of 5μl of substrate-ATP mixture (1μg RB, 20μM ATP, 20μCi γ-^32P-ATP). The reactions were incubated at 30°C for 20 minutes, terminated by addition of 0.5M O-phosphoric acid and 10μl of the reaction mixture was spotted on P-30 Filtermat membranes (Wallac #1450-523). The filtermat was air-dried, blocked with methanol for 2 minutes followed by three washes with 75mM phosphoric acid. The filtermat was then air-dried and analyzed using a phosphoimager. Densitometric values were plotted as a function of log drug concentration using Prism 4 GraphPad software and the IC50 values determined by plotting sigmoidal non-linear regression curves with variable slope (n=3).
CDK4/CyclinD1, sequence (P11802 whole entry): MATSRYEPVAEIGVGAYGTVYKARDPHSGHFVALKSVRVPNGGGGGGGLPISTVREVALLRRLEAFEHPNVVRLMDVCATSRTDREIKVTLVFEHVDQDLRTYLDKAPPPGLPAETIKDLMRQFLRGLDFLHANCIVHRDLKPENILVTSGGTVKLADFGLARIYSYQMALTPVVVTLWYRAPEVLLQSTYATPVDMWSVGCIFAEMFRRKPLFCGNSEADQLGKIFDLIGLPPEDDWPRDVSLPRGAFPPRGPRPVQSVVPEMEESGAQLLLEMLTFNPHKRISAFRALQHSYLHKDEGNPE
CDK4/CyclinD1, sequence (P24385 whole entry partner): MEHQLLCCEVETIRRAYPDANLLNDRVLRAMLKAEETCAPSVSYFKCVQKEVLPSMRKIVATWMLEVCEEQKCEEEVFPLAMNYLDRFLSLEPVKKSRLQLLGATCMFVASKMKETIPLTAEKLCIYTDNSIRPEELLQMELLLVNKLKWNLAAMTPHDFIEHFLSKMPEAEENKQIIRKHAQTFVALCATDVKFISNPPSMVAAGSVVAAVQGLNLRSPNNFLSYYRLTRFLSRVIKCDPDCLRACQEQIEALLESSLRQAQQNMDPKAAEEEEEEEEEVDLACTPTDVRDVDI

Assay [2] has as its target CK2α1 (Homo sapiens, UniProt P68400). Briefly: Kinase panel profiling (Reaction Biology Corp). In kind it is biochemical. The following applies: CK2α1, kinase inhibition profile. How it is done:
as §1

Assay [3] has as its system phospho-PTEN Ser380 and AKT Ser129 in CEM and Granta-519 cells. Briefly: Western blot of CK2-mediated PTEN and AKT phosphorylation. In kind it is cell-based, human. The following applies: CEM and Granta-519, 24 hours. How it is done: Figure 6 Inhibition of CK2/CDK4 mediated signaling by ON108110 (A) CEM and (B) Granta-519 cells were treated with increasing concentrations of ON 108110 for 24 hours. Whole cell extracts were subjected to western blot analysis using antibodies directed against the indicated proteins. GAPDH is shown as a loading control.
Cells were grown as indicated, lysed in lysis buffer (20mM Tris, pH 8.0/ 137mM NaCl/ 10% glycerol/ 1% NP-40) supplemented with 1X protease and phosphatase inhibitor cocktail on ice and resolved by SDS-PAGE. The proteins were transferred to a nitrocellulose membrane and subjected to Western blot analysis using the indicated antibodies. Proteins were visualized using an Odyssey imaging system (LI-COR Biosciences).

The results in this text go back to article PMC6340882, “Targeting protein kinase CK2 and CDK4/6 pathways with a multi-kinase inhibitor ON108110 suppresses pro-survival signaling and growth in mantle cell lymphoma and T-acute lymphoblastic leukemia” (Oncotarget, 2018).

CK2α1, sequence (P68400 whole entry): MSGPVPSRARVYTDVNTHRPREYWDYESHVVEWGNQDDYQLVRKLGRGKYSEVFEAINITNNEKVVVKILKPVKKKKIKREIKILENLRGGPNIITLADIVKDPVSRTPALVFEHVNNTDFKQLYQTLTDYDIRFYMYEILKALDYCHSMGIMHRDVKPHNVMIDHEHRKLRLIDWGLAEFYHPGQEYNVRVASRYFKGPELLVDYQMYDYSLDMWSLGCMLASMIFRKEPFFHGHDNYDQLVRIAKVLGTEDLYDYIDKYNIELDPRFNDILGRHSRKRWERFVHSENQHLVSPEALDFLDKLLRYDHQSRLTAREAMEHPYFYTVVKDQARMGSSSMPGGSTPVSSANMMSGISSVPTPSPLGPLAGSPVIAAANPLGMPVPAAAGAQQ

The IC50 is the concentration that inhibits the measured activity by half. Read a low IC50 as higher potency. The compound `CC(=O)Oc1ccc(/C=C2\Sc3ccc(F)cc3NC2=O)cc1[N+](=O)[O-]` [ON108110] gave a half-maximal inhibitory concentration (IC50) in assay [1] of 11 nM. Besides, half-maximal inhibition in assay [2] (IC50) was put at 3 nM. For the same compound, in assay [3], the “level of AKT Ser129” value was “reduction” and the “level of phospho-PTEN Ser380” value is “lower levels”.
